According to patent US10160716B2, “Compounds and methods of use thereof for treating tumors” (Georgetown University, priority 2012, dated 2018):

How the values were obtained:
MCF-7 cells = experiment: E2 stimulated proliferation of MCF-7 cells (cell counts); type: cell-based, human
Source text: Briefly, cells were inoculated into 12-well dishes at 1×10^4 cells per well on day 0 in 5% charcoal-stripped serum (CSS). […] Triplicate wells were counted on days 1-4 to determine the effect of 103(f) on cell growth.

MCF-7 = details: MCF-7, ER-α +; cited from earlier work
LCC1 = details: LCC1, ER-α +; cited from earlier work
LCC2 = details: LCC2, ER-α +; cited from earlier work
LCC9 = details: LCC9, ER-α +; cited from earlier work
ER-α = biological target: T1, ER-α (Homo sapiens, UniProt P03372); experiment: ERE-TK-Luc reporter assay of E2-stimulated ER-α transcriptional activity in MCF-7 cells; type: cell-based; details: for IC80: MCF7, read-out: IC80 (concentration required for inhibition of ER-α activity by 80%); for IC50: read-out: IC50 (concentration required for inhibition of ER-α activity by 50%)
T1 construct: endogenous in cells; host or cells: MCF-7
T1 sequence (P03372 1-595): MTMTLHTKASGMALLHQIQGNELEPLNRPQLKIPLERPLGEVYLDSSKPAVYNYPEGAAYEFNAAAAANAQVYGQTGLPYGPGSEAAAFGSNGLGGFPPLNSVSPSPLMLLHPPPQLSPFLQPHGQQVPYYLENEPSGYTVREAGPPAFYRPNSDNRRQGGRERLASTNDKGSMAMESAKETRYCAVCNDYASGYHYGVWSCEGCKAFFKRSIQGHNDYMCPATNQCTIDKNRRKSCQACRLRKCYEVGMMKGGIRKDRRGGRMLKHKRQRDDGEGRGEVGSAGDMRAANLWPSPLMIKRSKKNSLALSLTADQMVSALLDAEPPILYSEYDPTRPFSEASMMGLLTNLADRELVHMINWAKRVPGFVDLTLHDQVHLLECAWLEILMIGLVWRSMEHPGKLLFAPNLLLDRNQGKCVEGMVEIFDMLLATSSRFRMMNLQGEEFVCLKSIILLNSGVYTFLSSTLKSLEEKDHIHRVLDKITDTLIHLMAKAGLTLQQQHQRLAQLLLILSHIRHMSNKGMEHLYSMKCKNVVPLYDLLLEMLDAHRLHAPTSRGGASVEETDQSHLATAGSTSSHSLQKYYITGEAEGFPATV
Protocol: Briefly, MCF7 or T47D cells are transfected overnight with an ERE-TK-Luc reporter construct. An ERE-TK-Luc construct contains an estrogen response element (ERE) upstream of a minimal thymidine kinase (TK) promoter that drives the expression of the luciferase (Luc) reporter gene. After transfection, the cells are subsequently washed and allowed to recover for several hours. […] The cells are subsequently harvested for luciferase reporter assays.
Three compounds were tested for their ability to inhibit ER-α activity. […] Initially, each compound was tested at doses of 1 μM and 50 μM.

In the case of `C[C@]12CC[C@@H]3c4ccc(O)cc4CC[C@H]3[C@@H]1CC[C@@H]2O` [Compound E2, 17β-estradiol], the “cell density by day 4” value (MCF-7 cells; DMSO+E2 (10 nM), seeded 1×10^4 cells per well, 2% CSS) is given as 9×10^4 cells per well, the “Response to Estradiol (E2)” value (MCF-7) is given as “E2-responsive; E2-dependent growth” and the “Response to Estradiol (E2)” value (LCC1) is given as “Partially E2-depenedent growth”. For the same compound, the “Response to Estradiol (E2)” value (LCC2) was “E2-dependent growth” and the “Response to Estradiol (E2)” value (LCC9) was “E2-insensitive growth; some E2-responsive”.
In the case of `C[C@]12CC[C@@H]3c4ccc(O)cc4C[C@@H](CCCCCCCCC[S+]([O-])CCCC(F)(F)C(F)(F)F)[C@H]3[C@@H]1CC[C@@H]2O` (stereo partly drawn) [Fulvestrant], the “Response to Fulvestrant” value (MCF-7) is given as “Sensitive”, the “Response to Fulvestrant” value (LCC1) is given as “Sensitive” and the “Response to Fulvestrant” value (LCC2) is given as “Sensitive”. For the same compound, the “Response to Fulvestrant” value (LCC9) was “Resistant”.
For `CC/C(=C(\c1ccccc1)c1ccc(OCCN(C)C)cc1)c1ccccc1` [Tamoxifen], the “Response to Tamoxifen” value (MCF-7) is listed as “Sensitive”, the “Response to Tamoxifen” value (LCC1) is listed as “Sensitive” and the “Response to Tamoxifen” value (LCC2) is listed as “Resistant”. The “Response to Tamoxifen” value (LCC9) was “Resistant”.
`Nc1nc(Cc2ccccc2)nc(Cc2ccccc2)c1-c1ccccc1` [Compound 301] gave an IC80 (ER-α) of 40 µM and an IC50 (ER-α) of 12 µM.
`O=C(O)CCCc1ccc2ccccc2c1` [Compound 201] gave an IC80 (ER-α) of 50 µM and an IC50 (ER-α) of 4 µM.
For `CC(C)=CC1C(COC(=O)c2cc3c(cc2Cl)OCO3)C1(C)C` (stereo not drawn) [Compound 103(f)], the IC80 (ER-α) was 5 µM, the IC50 (ER-α) was 3 µM and the “effect on E2-stimulated cell growth” value (MCF-7 cells; 5 μM or 20 μM in the presence of 10 nM E2, P<0.01) was “blocked most of the E2-stimulated cell growth”. For the same compound, the “effect on cell growth, compound alone” value (MCF-7 cells; 5 μM or 20 μM, without E2, compared with DMSO, days 1-4) was “little or no effect on cell growth”.
